According to patent publication US8598339B2, “Withanolide isolated from Physalis longifolia and analogs and methods of use thereof” (University of Kansas, priority 2011, dated 2013):

Assays:
[1] = tested on: heat shock factor (HSF) / HSE-luciferase in Hs766T cells; experiment: HSE-luciferase reporter, Hs766T; assay type: cell-based; parameters: dose or concentration left out as unconfirmed; conditions: heat shock 42° C. 30 minutes; recovery 8 hours
Method: To monitor the activation of heat shock factor (HSF) and heat shock-mediated signal transduction pathways, Hs766T cells were transfected with a HSE-luciferase construct, then treated with 3 mM of the selected withanolides for 8 hours. The cells were heat shocked at 42° C. for 30 minutes and allowed to recover at 37° C. for 8 hours. Cells were lysed and luciferase activity was measured on a plate reader.

Mia PaCa-2 = experiment: Pancreatic cancer cell viability, Mia PaCa-2; assay type: cell-based; conditions: Homo sapiens, MIA PaCa2, read-out: IC50
Method: (§1) The activity of the withanolides of this invention were tested in pancreatic cancer cells. […] Moreover, IC50 values were determined for these compounds (Table 14).

HS766T = experiment: Pancreatic cancer cell viability, HS766T; assay type: cell-based; conditions: read-out: IC50
Method: as §1

Ames test strain TA98 = experiment: Ames test, TA98
Ames test strain TA1535 = experiment: Ames test, TA1535
Ames test strain TA100 = experiment: Ames test, TA100
[2] = tested on: human melanoma SKMEL28 cells; experiment: MTS cell viability assay, SKMEL28; assay type: cell-based; conditions: Homo sapiens, SK-MEL-28, Table 5
Method: (§2) Human carcinoid cells, NCI-H727 (ATCC, Manassas, Va.), were cultured under standard conditions. Squamous cell carcinoma of head and neck cells, MDA1986 (Myers, et al. (2002) Clin. Cancer Res. 8:293) and JMAR (Swan, et al. (2003) Oral Oncol. 39:648-55); and melanoma cells lines B16F10 (ATCC, Manassas, Va.) and SKMEL28 (CLS, Eppelheim, Germany) were cultured in DMEM medium supplemented with 10% heat-inactivated fetal bovine serum (Sigma-Aldrich, St. Louis, Mo.), 1×MEM-essential amino acid, 1×MEM vitamin, and penicillin/streptomycin (Sigma-Aldrich, St. Louis, Mo.) in a humid environment of 5% CO2 at 37° C. Activity of withanolides against DRO81-1 and TT medullary thyroid cancer cells was also determined.
(§3) Cells were cultured in 96 well plates at a concentration of 1-2×10^4 cells/mL. Cell viability was assessed with the nonradioactive cell proliferation MTS assay using Cell Titer 96AQUEOUS One Solution Reagent (PROMEGA, Madison, Wis.), according to the manufacturer's instruction. After a 72-hour treatment, 20 μL of Cell Titer 96AQUEOUS One Solution Reagent were added to each well and incubated for 3 hours at 37° C. 5% CO2, and formazan absorbance was measured at 490 nm.
A cell viability MTS assay was carried out to determine the anti-cancer effect of the withanolides on human melanoma SKMEL28 cells. Cells were treated for 72 hours and cell viability was determined according to the manufacturer's instruction.

[3] = tested on: squamous cell carcinoma of head and neck cells MDA1986; experiment: MTS cell viability assay, MDA1986; assay type: cell-based; conditions: Table 5
Method: as §2, §3

melanoma cells B16F10 = experiment: MTS cell viability assay, B16F10; assay type: cell-based; conditions: Mus musculus, B16-F10, Table 5
Method: as §2, §3

[4] = tested on: squamous cell carcinoma of head and neck cells JMAR; experiment: MTS cell viability assay, JMAR; assay type: cell-based; conditions: Table 5
Method: as §2, §3

MRC-5 = experiment: MTS cell viability assay, MRC-5; assay type: cell-based; conditions: Homo sapiens, MRC5, Table 5
[5] = tested on: RET, mTOR, 4E-BP1, P70S6 kinase, akt, pERK in medullary thyroid cancer cells; experiment: Mechanistic pathway protein levels in medullary thyroid cancer cells; assay type: cell-based; conditions: for pERK / total and phosphorylated protein levels of RET, mTOR, 4E-BP1, P70S6 kinase: 24 hours, 0.25, 0.5, 1 or 3 μM
Method: Additional analysis of X005, X032 and X033 was carried out in medullary thyroid cancer cells. […] Therefore, this analysis indicates the importance of this double bond in the A-ring to anti-cancer activity.

| Structure (SMILES) | IC50 (Mia PaCa-2) | IC50 (HS766T) | IC50 [2] | IC50 [3] | IC50 (melanoma cells B16F10) | IC50 [4] | IC50 (MRC-5) | other results |
| --- | --- | --- | --- | --- | --- | --- | --- | --- |
| CC1=C(C)C(=O)O[C@@H]([C@@H](C)[C@H]2CC[C@H]3[C@@H]4C[C@H]5O[C@]56[C@@H](O)C=CC(=O)[C@]6(CO)[C@H]4CC[C@]23C)C1 (stereo in doubt) [Compound X030] | 800 nM | 800 nM |  |  |  |  |  | heat shock-induced increase in luciferase activity [1]: substantially reduced |
| Nc1cccc2cc3ccccc3cc12 [Aminoanthracene, reference compound] |  |  |  |  |  |  |  | Positive Significance (− to +++) (Ames test strain TA98; 1.0E−05 M, TA98 +S9): +++ (Very strong positive, if p < 0.001, denoted as “+++”.); Positive Significance (− to +++) (Ames test strain TA98; 1.0E−05 M, TA98 −S9): −; Positive Significance (− to +++) (Ames test strain TA1535; 1.0E−05 M, TA1535 +S9): +++ (Very strong positive, if p < 0.001, denoted as “+++”.); Positive Significance (− to +++) (Ames test strain TA1535; 1.0E−05 M, TA1535 −S9): −; Positive Significance (− to +++) (Ames test strain TA100; 1.0E−05 M, TA100 +S9): +++ (Very strong positive, if p < 0.001, denoted as “+++”.); Positive Significance (− to +++) (Ames test strain TA100; 1.0E−05 M, TA100 −S9): − |
| CC1=C(CO)C(=O)O[C@@H]([C@@H](C)[C@H]2CC[C@H]3[C@@H]4C[C@H]5O[C@]56[C@@H](O)C=CC(=O)[C@]6(C)[C@H]4[C@@H](O)C[C@]23C)C1 [Compound X004] | 1300 nM | 1600 nM | 2990 nM | 2640 nM | 490 nM | 770 nM | 3600 nM |  |
| CO[C@H]1CC(=O)[C@]2(CO)[C@H]3CC[C@]4(C)[C@@H]([C@H](C)[C@H]5CC(C)=C(CO)C(=O)O5)CC[C@H]4[C@@H]3C[C@H]3O[C@]32[C@H]1O [Compound X005] |  |  | 9270 nM | > 25000 nM | 3210 nM | 4690 nM | 6500 nM | RET, mTOR, 4E-BP1, p70S6 kinase and akt levels ([5]; medullary thyroid cancer cells): dose-dependent increase |
| CC1=C(CO)C(=O)O[C@@H]([C@@H](C)[C@H]2CC[C@H]3[C@@H]4C[C@H]5O[C@]56[C@@H](O)[C@@H](OS(=O)(=O)O)CC(=O)[C@]6(CO)[C@H]4CC[C@]23C)C1 [Compound X017] | 1400 nM | 1800 nM | 4800 nM | 2020 nM | 1330 nM | 2250 nM | 3330 nM |  |
| CC(=O)O[C@H]1C=CC(=O)[C@]2(CO)[C@H]3CC[C@]4(C)[C@@H]([C@H](C)[C@H]5CC(C)=C(C)C(=O)O5)CC[C@H]4[C@@H]3C[C@H]3O[C@]132 [Compound X032] |  |  | 640 nM | 490 nM | 190 nM | 120 nM | 160 nM | pERK [5]: increased at higher concentrations; total and phosphorylated protein levels of RET, mTOR, 4E-BP1, P70S6 kinase [5]: dose-dependent down-regulation; potency in pathway analysis relative to X001 ([5]; medullary thyroid cancer cells): more potent than X001 |
| CC(=O)OC[C@]12C(=O)C=C[C@H](OC(C)=O)[C@]13O[C@@H]3C[C@H]1[C@@H]3CC[C@H]([C@H](C)[C@H]4CC(C)=C(C)C(=O)O4)[C@@]3(C)CC[C@@H]12 [Compound X033] |  |  | 270 nM | 110 nM | 130 nM | 240 nM | 510 nM | pERK [5]: increased at higher concentrations; total and phosphorylated protein levels of RET, mTOR, 4E-BP1, P70S6 kinase [5]: dose-dependent down-regulation; potency in pathway analysis relative to X001 ([5]; medullary thyroid cancer cells): more potent than X001 |
| O=c1c(O)c(-c2ccc(O)c(O)c2)oc2cc(O)cc(O)c12 [Quercetin, reference compound] |  |  |  |  |  |  |  | Positive Significance (− to +++) (Ames test strain TA98; 3.0E−05 M, TA98 +S9): +++ (Very strong positive, if p < 0.001, denoted as “+++”.); Positive Significance (− to +++) (Ames test strain TA98; 3.0E−05 M, TA98 −S9): +++ (Very strong positive, if p < 0.001, denoted as “+++”.); Positive Significance (− to +++) (Ames test strain TA1535; 3.0E−05 M, TA1535 +S9): −; Positive Significance (− to +++) (Ames test strain TA1535; 3.0E−05 M, TA1535 −S9): −; Positive Significance (− to +++) (Ames test strain TA100; 3.0E−05 M, TA100 +S9): −; Positive Significance (− to +++) (Ames test strain TA100; 3.0E−05 M, TA100 −S9): − |
